The source of these data is paper PMC12858467, “In vitro toxicokinetics and metabolic profiling of methoxycathinones and methylthiocathinones using human liver systems and hyphenated mass spectrometry” (Archives of Toxicology, 2025).

SMILES strings stand for the structures. Where two headings read alike, the source gives them in different places.

Data set [1] deals with pooled human liver S9 fraction (pHLS9) and HepaRG cells. Nature of the data set: In vitro metabolism by pHLS9 and HepaRG cells (LC-HRMS/MS metabolite identification). It counts as in vitro ADME. To be noted: 25 µM substrate.
A short description of data set [2]: In vitro plasma protein binding (ultrafiltration, Centrifree). The note with it: human, pooled human blood plasma, 30 min, 37 °C, ultrafiltration. The data set is classed as in vitro ADME. How it is done: (§1) PPB was investigated according to a previous study with minor modifications (Kroesen et al. [2025]). Fresh and pooled human blood plasma (450 µL) was spiked with 50 µL of a 5 µM methanolic solution of 4MeO-NE-BP, 4MeO-αP-BP, 4MeO-αP-VP, 4MeS-NE-BP, 4MeS-αP-BP, or 4MeS-αMor-PrP. The mixture was incubated for 30 min at 37 °C and with gentle shaking at 200 rpm. […] The Centrifree devices were centrifuged for 35 min at 1600 × g to obtain 100 µL of the ultrafiltrate (UF). […] Experiments were performed in quadruplicate. Fraction unbound (fu) and PPB were determined by comparing the area ratios of the compound and trimipramine-d3 as an internal standard in the UF and GA using the following equations:1 fu=peak area ratiocompoundUF/ISUF/peak area ratiocompoundGA/ISGA 2 PPB[\%]=1-fu∗100.

Data set [3] concerns plasma proteins (pooled human blood plasma). The description is as above. The data set is classed as in vitro ADME. To be noted: for PPB, %: 30 min, 37 °C, ultrafiltration. How it is done:
as §1

The next data set deals with T1, CYP2D6 (Homo sapiens, UniProt P10635).
T1 construct: purchased Discovery Life Sciences (Huntsville, LA, USA); host or cells: baculovirus-infected insect cells (microsomes, Supersomes)
The experiment in a line: Monooxygenases activity screening, CYP2D6. The data set is classed as in vitro ADME. To be noted: 25 µM, 30 min, 37 °C. How it is done:
For incubations with CYP2A6 or CYP2C9, phosphate buffer was replaced with 90 mM Tris buffer, according to the manufacturer’s guideline. […] All incubations were done in duplicate and concentrations were fixed. Verapamil (25 µM) was incubated as a positive control.

The test system of a further data set is HepaRG cells. Nature of the data set: Incubations using HepaRG cells. The note with it: 25 µM parent, 24 h.
Where [4] appears, read: read-out: fu (unbound fraction).

T1 sequence (P10635 whole entry): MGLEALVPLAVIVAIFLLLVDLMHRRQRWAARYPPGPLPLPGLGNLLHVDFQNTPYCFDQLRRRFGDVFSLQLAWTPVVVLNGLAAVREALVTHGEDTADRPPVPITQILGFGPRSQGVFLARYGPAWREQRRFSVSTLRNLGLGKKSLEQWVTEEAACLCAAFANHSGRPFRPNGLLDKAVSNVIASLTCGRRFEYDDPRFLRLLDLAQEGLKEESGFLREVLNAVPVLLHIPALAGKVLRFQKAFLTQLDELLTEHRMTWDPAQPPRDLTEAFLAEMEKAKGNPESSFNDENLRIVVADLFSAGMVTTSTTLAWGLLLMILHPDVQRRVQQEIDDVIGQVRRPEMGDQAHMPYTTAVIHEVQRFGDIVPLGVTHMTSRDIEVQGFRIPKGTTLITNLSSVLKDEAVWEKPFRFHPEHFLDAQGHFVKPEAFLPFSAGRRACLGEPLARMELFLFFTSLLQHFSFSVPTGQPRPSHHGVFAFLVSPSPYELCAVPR

As for `CSc1ccc(C(=O)C(C)N2CCOCC2)cc1` (stereo not shown) [4MeS-αMor-PrP, 4’-methylthio-2-morpholinopropiophenone], in data set [1], the “metabolic reactions (metabolite IDs) identified” value (from here on “metabolic reactions”) is “S-demethylation (MT3.1), hydroxylation (MT3.2), N-oxidation (MT3.3), oxo reduction (MT3.4), lactam formation (MT3.6), N,O-bis-dealkylation (MT3.7), dehydrogenation (MT3.9), and combinations thereof”; the “number of metabolites tentatively identified” value (from here on “number”) worked out at 10. Also, in data set [2] (read-out: PPB, % (converted)), the fraction unbound at 30 min, 0.5 µM was 0.14. Moreover, the fraction unbound at 30 min, 0.5 µM in data set [2] (setting [4]) was found to be 0.14.
As for `CCNC(CC)C(=O)c1ccc(OC)cc1` (stereo not shown) [Compound 4MeO-NE-BP, 4’-methoxy-N-ethylbutyrophenone], in data set [1], the “metabolic reactions” value was “O-demethylation (MO1.1), hydroxylation (MO1.2), N-dealkylation (MO1.3), hydroxylamine formation (MO1.4), and O-demethylation + sulfation (MO1.5)”; the “number” value was 5. Besides, the fraction unbound at 30 min, 0.5 µM in data set [2] (read-out: PPB, % (converted)) was above 0.5. In data set [2] (setting [4]), the fraction unbound at 30 min, 0.5 µM came out at 0.61. Besides, in data set [3], the “Plasma protein binding, class in words” value is “low” and the “PPB, %” value worked out at 39%.
`CCC(C(=O)c1ccc(OC)cc1)N1CCCC1` (stereo not drawn) [Compound 4MeO-αP-BP, 4’-methoxy-α-pyrrolidinobutyrophenone]: in data set [1], the “metabolic reactions” value is “hydroxylation (MO2.1), O-demethylation (MO2.2), N-oxidation (MO2.3), lactam formation (MO2.4), and hydroxylation + N-oxidation (MO2.5)”; the “number” value turned out to be 5. Besides, the fraction unbound at 30 min, 0.5 µM in data set [2] (read-out: PPB, % (converted)) is above 0.5. In addition, the fraction unbound at 30 min, 0.5 µM in data set [2] (setting [4]) stood at 0.54. For the same molecule, in data set [3], the “Plasma protein binding, class in words” value was “low” and the “PPB, %” value was 46%.
In the case of `CCNC(CC)C(=O)c1ccc(SC)cc1` (stereo not shown) [Compound 4MeS-NE-BP, 4’-methylthio-N-ethylbutyrophenone], in data set [1], the “metabolic reactions” value is “S-demethylation (MT1.1), hydroxylation (MT1.2), N-dealkylation (MT1.3), hydroxylamine formation (MT1.4), hydroxylation + oxidation (MT1.5), N-dealkylation + S-demethylation (MT1.6), and hydroxylamine formation + hydroxylation (MT1.7)”; the “number” value was 7. On CYP2D6, the “S-demethylation, only mediated by one CYP isoform” value is “CYP2D6”. For the same molecule, the fraction unbound at 30 min, 0.5 µM in data set [2] (read-out: PPB, % (converted)) is 0.13. The fraction unbound at 30 min, 0.5 µM in data set [2] (setting [4]) was 0.13.
For the molecule `CCC(C(=O)c1ccc(SC)cc1)N1CCCC1` (stereo not drawn) [Compound 4MeS-αP-BP, 4’-methylthio-α-pyrrolidinobutyrophenone], in data set [1], the “metabolic reactions” value was “S-demethylation (MT2.1), hydroxylation (MT2.2), N-oxidation (MT2.3), lactam formation (MT2.4), N,N-bis-dealkylation (MT2.5), dihydroxylation (MT2.6), S-demethylation + hydroxylation (MT2.7), and N-oxidation + hydroxylation (MT2.8)”; the “number” value is given as 8. Also, the “S-demethylation, only mediated by one CYP isoform” value at CYP2D6 was “CYP2D6”. Besides, the fraction unbound at 30 min, 0.5 µM in data set [2] (read-out: PPB, % (converted)) was 0.16. For the same molecule, in data set [2] (setting [4]), the fraction unbound at 30 min, 0.5 µM stood at 0.16.
As for `CCCC(C(=O)c1ccc(OS(=O)(=O)O)cc1)N1CCCC1` (stereo not shown) [MO3.9], in the data set on HepaRG cells, the “metabolite detection in HepaRG incubations” value is recorded as “observed in HepaRG incubations”.
On the same count and under the same terms, in the case of `CCC(N)C(=O)c1ccc(SC)cc1` (stereo not shown) [MT2.5] it was “only detected in HepaRG incubations”.
